Tests used:
[1] = system: LM2 and MDA-MB-231 breast cancer cell lines; test: PAICS 2D cell proliferation assay; assay type: cell-based; settings: Homo sapiens; 72 hours incubation; cell line (LM2 or MDA-MB-231) not given
Protocol: Frozen cryovial stocks of LM2 and MDA-MB-231 breast cancer cell lines were thawed and cultured in 4.5 g/L glucose DMEM (31966-047, Invitrogen) supplemented with 10% Fetal Bovine Serum (10500-064, Invitrogen) until confluent in a T175 flask. Cells were incubated at 37° C. with 5% CO2 in a humidified incubator.
Cells were collected from T175 flasks by washing with PBS (10010-056, Invitrogen) and dissociated using Accutase (A6964, Sigma Aldrich). This was followed by centrifuging (1200 rpm, 5 min) and resuspending the cells in 10 ml of media containing 1% penicillin/streptomycin (15140-122, Invitrogen). Cells were counted by trypan blue exclusion method using an automated cell counter (Cellometer) and diluted to a concentration of 40,000/ml. 1000 cells were then seeded into 384-well white-walled plates (Corning, 3707) in a volume of 25 μl. Plates were incubated overnight at 37° C. with 5% CO2.
After 24 hours, PAICS compounds were added onto the assay plates using an HP D300 Digital Dispenser (Hewlett Packard). 10 mM stocks were used and dispensed as a 10 point concentration response curve (CRC) ½ log dilution series with a final top concentration of 100 μM. Controls were added onto each plate: positive controls included Staurosporine CRC (100 μM stock dispensed as a 10 point CRC ½ log dilution series with a final top concentration of 1 μM) and PAICS compound MRT00211919 (10 mM stock dispensed as a 10 point CRC ½ log dilution series with a final top concentration of 100 μM); a high control of Staurosporine (0.1 μM (LM2), 0.316 μM (MDA-MB-231) FAC) and a low control of media containing 1% DMSO. A final concentration of 1% DMSO was then added across the plates for normalisation. Following compound addition, assay plates were incubated for 72 hours at 37° C. with 5% CO2.
After 72 h incubation, dead and viable cells were measured in each assay plate. Cytotoxicity was assessed through fluorescent DNA staining using the CellTox™ Green Cytotoxicity Assay kit (G8743, Promega) following the manufacturer's multiplexing protocol. Impaired cell membrane integrity results in the access of dye to stain DNA allowing quantification of dead cells. Cell viability was determined following ATP quantification using the CellTiter-Glo® Luminescent Cell Viability Assay kit (G7572, Promega) following the manufacturer's protocol. ATP released from lysed cells allowed for the generation of a signal proportional to the number of cells present in the well. All endpoint reads were performed using the PheraSTAR Plus (BMG Labtech). Data is expressed as % viable cells and % dead cells against controls (mean±SEM of duplicate curves).

WT full length PAICS = molecular target: T1, WT full length PAICS (Homo sapiens, UniProt P22234); test: Biochemical assay to measure PAICS activity (Transcreener ADP2 FI, SAICAR synthetase reaction); settings: PAICS 2.5 nM, 30 mins pre-incubation, ADP detection by fluorescence intensity
T1 construct: 5 μl WT full length PAICS (final assay concentration, fac, 2.5 nM) in basic buffer
T1 sequence (P22234 1-425): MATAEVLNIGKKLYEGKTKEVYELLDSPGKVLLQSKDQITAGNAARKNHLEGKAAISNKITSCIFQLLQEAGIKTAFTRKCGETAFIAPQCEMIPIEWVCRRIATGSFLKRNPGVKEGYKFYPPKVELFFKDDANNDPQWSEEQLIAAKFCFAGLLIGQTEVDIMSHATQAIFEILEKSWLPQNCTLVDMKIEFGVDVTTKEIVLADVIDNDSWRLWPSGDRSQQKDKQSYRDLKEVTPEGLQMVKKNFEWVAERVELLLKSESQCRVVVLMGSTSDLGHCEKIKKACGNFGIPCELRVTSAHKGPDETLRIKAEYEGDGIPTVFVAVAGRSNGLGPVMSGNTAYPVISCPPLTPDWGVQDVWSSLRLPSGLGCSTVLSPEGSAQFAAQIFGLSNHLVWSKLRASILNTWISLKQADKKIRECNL
Excerpt: The biochemical assay was used to measure PAICS SAICAR synthetase-mediated conversion of CAIR, aspartic acid and ATP to SAICAR, ADP and inorganic phosphate (PI), post-AIR/CAIR equilibration (see FIG. 3). This was achieved by detecting the ADP generated during the reaction, using Bellbrook Lab's Transcreener ADP^2 FI assay. An increase in the fluorescence intensity is directly proportional to the amount of PAICS activity.
The Transcreener ADP^2 FI assay is a homogeneous competitive displacement fluorescence intensity assay which uses direct immunodetection of ADP. Displacement of the tracer by ADP causes an increase in the fluorescence at excitation 590 nm and emission 617 nm (FIG. 3).
5 μl WT full length PAICS (final assay concentration, fac, 2.5 nM) in basic buffer, added to black, non-binding, 384-well plates (Corning #3575), columns 1 to 22.5 μl basic buffer was added to columns 23+24 (negative control). PAICS stock at 31.9 μM from the PI's lab (Steve Firestine). Basic buffer contained 50 mM Tris-HCl pH8 and 0.5 mM EDTA, fac.
1 μl compound in 100% DMSO added per well, or 1 μl 100% DMSO to positive controls (columns 1+2) and negative controls (columns 23+24). Final assay top concentration of compound either 1 mM or 30 μM, serially diluted with half-log dilutions across the plate in duplicate (one 10-point concentration response curve across wells 3 to 12, another across 13 to 22). Compounds pre-incubated with PAICS enzyme for 30 mins at RT.
2 μl CAIR added (fac 10 μM) in basic buffer plus 25 mM MgCl2 and 50 mM KHCO3 fac to all wells. CAIR stock 50 mM from Steve Firestine's lab. 1 hr RT incubation for AIR-CAIR equilibration. NB: ˜50% CAIR is decarboxylated during equilibration therefore 5 μM remains for the synthetase reaction.
2 μl ATP/aspartic acid added (fac 30 μM/180 μM) in reaction buffer to all wells. 30 mins RT incubation for appropriate level of ATP turnover. Reaction buffer contained basic buffer plus 10 mM DTT, 0.01% BSA and 0.01% Brij 35, fac.
10 μl ADP detection reagent added to all wells (as per instructions, Transcreener ADP^2 FI kit, BellBrook Labs #3013-10K). Incubation for 1 h at RT to allow antibody equilibration. Fluorescence intensity determined using a Tecan Safire2 (excitation at 590 nm, emission at 617 nm).

| EC50 [1] [nM] | IC50 (WT full length PAICS) [nM] | Structure (SMILES) |
| --- | --- | --- |
| 100 to 250 | 10 to 25 | N#Cc1nn(C2CCNCC2)cc1-c1ccc(Cl)c(NC(=O)c2coc(N)n2)c1 [Example 53, 2-Amino-N-(2-chloro-5-(3-cyano-1-(piperidin-4-yl)-1H-pyrazol-4-yl)phenyl)oxazole-4-carboxamide] |
| 250 to 500 | 10 to 25 | Nc1nc(C(=O)Nc2cc(-c3ccn(C4CCNCC4)n3)ccc2Cl)co1 [Example 54, 2-amino-N-{2-chloro-5-[1-(piperidin-4-yl)-1H-pyrazol-3-yl]phenyl}-1,3-oxazole-4-carboxamide] |
| 100 to 250 | 10 to 25 | Cc1nn(C2CCNCC2)cc1-c1ccc(Cl)c(NC(=O)c2coc(N)n2)c1 [Example 55, 2-Amino-N-(2-chloro-5-(3-methyl-1-(piperidin-4-yl)-1H-pyrazol-4-yl)phenyl)oxazole-4-carboxamide] |
| 100 to 250 | 10 to 25 | CCNCCn1cc(-c2ccc(Cl)c(NC(=O)c3coc(N)n3)c2)cn1 [Example 56, 2-Amino-N-(2-chloro-5-(1-(2-(ethylamino)ethyl)-1H-pyrazol-4-yl)phenyl)oxazole-4-carboxamide] |
| 250 to 500 | 25 to 100 | CN1CCN(CCn2cc(-c3ccc(Cl)c(NC(=O)c4coc(N)n4)c3)cn2)CC1 [Example 57, 2-Amino-N-(2-chloro-5-(1-(2-(4-methylpiperazin-1-yl)ethyl)-1H-pyrazol-4-yl)phenyl)oxazole-4-carboxamide] |
| 250 to 500 | 25 to 100 | CN(C)CCNC(=O)Cn1cc(-c2ccc(Cl)c(NC(=O)c3coc(N)n3)c2)cn1 [Example 58, 2-Amino-N-{2-chloro-5-[1-(2-{[2-(dimethylamino)ethyl]amino}-2-oxoethyl)-1H-pyrazol-4-yl]phenyl}-1,3-oxazole-4-carboxamide] |
| 250 to 500 | 25 to 100 | CN(C)C1CCN(C(=O)Cn2cc(-c3ccc(Cl)c(NC(=O)c4coc(N)n4)c3)cn2)CC1 [Example 59, 2-Amino-N-[2-chloro-5-(1-{2-[4-(dimethylamino)piperidin-1-yl]-2-oxoethyl}-1H-pyrazol-4-yl)phenyl]-1,3-oxazole-4-carboxamide] |
| 250 to 500 | > 100 | CC1CN(C(=O)Cn2cc(-c3ccc(Cl)c(NC(=O)c4coc(N)n4)c3)cn2)CCN1 (centres unmarked) [Example 60, 2-Amino-N-(2-chloro-5-{1-[2-(3-methylpiperazin-1-yl)-2-oxoethyl]-1H-pyrazol-4-yl}phenyl)-1,3-oxazole-4-carboxamide] |
| 250 to 500 | 25 to 100 | CN1CCC(NC(=O)Cn2cc(-c3ccc(Cl)c(NC(=O)c4coc(N)n4)c3)cn2)CC1 [Example 61, 2-Amino-N-[2-chloro-5-(1-{2-[(1-methylpiperidin-4-yl)amino]-2-oxoethyl}-1H-pyrazol-4-yl)phenyl]-1,3-oxazole-4-carboxamide] |
| 100 to 250 | > 100 | CN(C)CC(=O)N1CCC(n2cc(-c3ccc(Cl)c(NC(=O)c4coc(N)n4)c3)cn2)CC1 [Example 62, 2-Amino-N-(2-chloro-5-{1-[1-(N,N-dimethylglycyl)piperidin-4-yl]-1H-pyrazol-4-yl}phenyl)-1,3-oxazole-4-carboxamide] |
| 250 to 500 | > 100 | CN(C)CCC(=O)N1CCC(n2cc(-c3ccc(Cl)c(NC(=O)c4coc(N)n4)c3)cn2)CC1 [Example 63, 2-Amino-N-(2-chloro-5-{1-[1-(N,N-dimethyl-beta-alanyl)piperidin-4-yl]-1H-pyrazol-4-yl}phenyl)-1,3-oxazole-4-carboxamide] |
| 250 to 500 | > 100 | CN(C)CCCC(=O)N1CCC(n2cc(-c3ccc(Cl)c(NC(=O)c4coc(N)n4)c3)cn2)CC1 [Example 64, 2-Amino-N-[2-chloro-5-(1-{1-[4-(dimethylamino)butanoyl]piperidin-4-yl}-1H-pyrazol-4-yl)phenyl]-1,3-oxazole-4-carboxamide] |
| 250 to 500 | 25 to 100 | CN(C)CCC(=O)N1CC(Cn2cc(-c3ccc(Cl)c(NC(=O)c4coc(N)n4)c3)cn2)C1 [Example 65, 2-Amino-N-[2-chloro-5-{1-([1-(N,N-dimethyl-beta-alanyl)azetidin-3-yl]methyl}-1H-pyrazol-4-yl)phenyl]-1,3-oxazole-4-carboxamide] |
| 100 to 250 | > 100 | Nc1nc(C(=O)Nc2cc(-c3cnn(C4CCN(CCO)CC4)c3)ccc2Cl)co1 [Example 66, 2-Amino-N-(2-chloro-5-{1-[1-(2-hydroxyethyl)piperidin-4-yl]-1H-pyrazol-4-yl}phenyl)-1,3-oxazole-4-carboxamide] |
| 250 to 500 | 10 to 25 | Nc1nc(C(=O)Nc2cc(-c3ccc(OC4CCNC4)nc3)ccc2Cl)co1 (centres unmarked) [Example 68, 2-Amino-N-(2-chloro-5-(6-(pyrrolidin-3-yloxy)pyridin-3-yl)phenyl)oxazole-4-carboxamide] |
| 250 to 500 | 10 to 25 | Nc1nc(C(=O)Nc2cc(-c3ccc(OCC4CCCNC4)nc3)ccc2Cl)co1 (centres unmarked) [Example 69, 2-Amino-N-(2-chloro-5-(6-(piperidin-3-ylmethoxy)pyridin-3-yl)phenyl)oxazole-4-carboxamide] |
| 100 to 250 | 10 to 25 | CNCCCOc1ccc(-c2ccc(Cl)c(NC(=O)c3coc(N)n3)c2)cn1 [Example 70, 2-Amino-N-(2-chloro-5-(6-(3-(methylamino)propoxy)pyridin-3-yl)phenyl)oxazole-4-carboxamide] |
| 100 to 250 | 10 to 25 | CC(C)NCCCOc1ccc(-c2ccc(Cl)c(NC(=O)c3coc(N)n3)c2)cn1 [Example 71, 2-Amino-N-(2-chloro-5-(6-(3-(isopropylamino)propoxy)pyridin-3-yl)phenyl)oxazole-4-carboxamide] |
| 100 to 250 | 10 to 25 | CN(C)CCCOc1ccc(-c2ccc(Cl)c(NC(=O)c3coc(N)n3)c2)cn1 [Example 72, 2-Amino-N-(2-chloro-5-{6-[3-(dimethylamino)propoxy]pyridin-3-yl}phenyl)-1,3-oxazole-4-carboxamide] |

— patent US10961234B2, “Oxazole derivatives for use in the treatment of cancer” (LIFEARC, priority 2016, dated 2021)
